Target: T1, human recombinant PARP1 (Homo sapiens, UniProt P09874)
T1 construct: purchased Trevigen 4677-096-K
Test: PARP inhibitory activity measurement test (Universal Colorimetric PARP Assay kit, Trevigen)
Type: biochemical
Conditions: compound concentration: 10 μM, read-out: PARP1 inhibition rate (%)
Experimental: For evaluating PARP inhibitory activity of the present compound, inhibitory activity of each test compound against human recombinant PARP 1 was measured using Universal Colorimetric PARP Assay kit with Histone-Coated Strip Wells (Cat No.: 4677-096-K) available from Trevigen. The test was conducted according to the procedure in the instruction attached to this kit. The concrete operation will be described below.
After dissolving the test compound in dimethyl sulfoxide, the solution was diluted with a PARP buffer attached to the kit to prepare a 50 μM test compound solution.
In each well of a histone-coated 96-well plate, 10 μL of the test compound solution (50 μM), 15 μL of human recombinant PARP1 (33.3 Unit/mL) and 25 μL of PARP cocktail (containing activated DNA and biotinated NAD) were added, and incubated at room temperature for 1 hour (final reaction amount: 50 μL). Each well was washed twice with 200 μL of 0.1% Triton-X-containing Dulbecco's phosphate buffer, and further washed twice with 200 μL of Dulbecco's phosphate buffer, and then 50 μL of Strep-HRP was added, followed by incubation at room temperature for 1 hour. Each well was washed twice with 200 μL of 0.1% Triton-X-containing Dulbecco's phosphate buffer, and further washed twice with 200 μL of Dulbecco's phosphate buffer, and then 50 μL of TACS-Sapphire coloriometric substrate was added, followed by incubation at room temperature for 15 minutes. After stopping the reaction by adding 50 μL of 0.2 M HCl, absorbance at 450 nm (Abs 450) was measured by a microplate reader. The number of examples in each group was 1 to 2.
Using a well into which dimethyl sulfoxide and a PARP buffer were added in place of the test compound solution and human recombinant PARP1, the above operation was conducted as a negative control.
Using a well into which a PARP buffer containing dimethyl sulfoxide was added in place of the test compound solution, the above operation was conducted as a positive control.
PARP1 inhibition rate (%) was calculated according to the following Formula 1. PARP1 inhibition rate(%)=(AbsB−AbsX)/(AbsB−AbsA)×100 [Formula 1]
AbsA: absorbance of negative control (Abs 450)
AbsB: absorbance of positive control (Abs 450)
AbsX: absorbance of test compound-treated group (Abs 450)

T1 sequence (P09874 whole entry): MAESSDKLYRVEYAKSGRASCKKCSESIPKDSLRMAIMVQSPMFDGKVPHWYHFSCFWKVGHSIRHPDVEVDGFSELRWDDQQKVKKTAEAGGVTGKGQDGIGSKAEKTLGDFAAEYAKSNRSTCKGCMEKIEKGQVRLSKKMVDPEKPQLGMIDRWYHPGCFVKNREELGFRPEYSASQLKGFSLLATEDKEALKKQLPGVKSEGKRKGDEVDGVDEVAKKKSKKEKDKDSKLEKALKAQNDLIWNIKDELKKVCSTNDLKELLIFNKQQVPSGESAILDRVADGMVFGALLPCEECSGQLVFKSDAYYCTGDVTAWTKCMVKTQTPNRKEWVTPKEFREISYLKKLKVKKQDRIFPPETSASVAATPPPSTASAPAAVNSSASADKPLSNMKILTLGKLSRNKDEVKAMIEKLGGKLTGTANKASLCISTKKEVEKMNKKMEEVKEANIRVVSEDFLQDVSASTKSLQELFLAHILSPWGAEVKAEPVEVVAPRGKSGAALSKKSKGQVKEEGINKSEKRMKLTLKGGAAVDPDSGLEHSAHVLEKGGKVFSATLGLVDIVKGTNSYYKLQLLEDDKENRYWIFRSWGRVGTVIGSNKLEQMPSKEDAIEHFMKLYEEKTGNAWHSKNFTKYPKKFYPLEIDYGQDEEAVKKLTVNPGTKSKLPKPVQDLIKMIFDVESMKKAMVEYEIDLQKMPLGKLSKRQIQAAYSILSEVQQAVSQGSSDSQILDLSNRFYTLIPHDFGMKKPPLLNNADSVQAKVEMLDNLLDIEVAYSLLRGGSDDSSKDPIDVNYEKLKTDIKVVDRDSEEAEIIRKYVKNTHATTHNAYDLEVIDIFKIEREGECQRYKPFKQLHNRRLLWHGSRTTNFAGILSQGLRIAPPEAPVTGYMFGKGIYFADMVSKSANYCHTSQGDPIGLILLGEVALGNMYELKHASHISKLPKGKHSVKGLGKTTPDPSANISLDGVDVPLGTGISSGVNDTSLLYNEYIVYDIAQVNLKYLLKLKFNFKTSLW

Compound	inhibition at 10 µM
O=C(c1cc2[nH]c(=O)c3ccccc3n2c1)N1CCN(c2ccc(F)cc2)CC1 [Compound 1-1, 2-[4-(4-Fluorophenyl)piperazine-1-carbonyl]pyrrolo[1,2-a]quinazolin-5(4H)-one]	90%
O=C(c1cc2[nH]c(=O)c3ccccc3n2c1)N1CCN(Cc2ccc(Cl)cc2)CC1 [Compound 1-2, 2-[4-(4-Chlorobenzyl)piperazine-1-carbonyl]pyrrolo[1,2-a]quinazolin-5(4H)-one]	55%
O=C(c1cc2[nH]c(=O)c3ccccc3n2c1)N1CCN(c2nccs2)CC1 [Compound 1-3, 2-[4-(Thiazol-2-yl)piperazine-1-carbonyl]pyrrolo[1,2-a]quinazolin-5(4H)-one]	100%
O=C(c1cc2[nH]c(=O)c3ccccc3n2c1)N1CCN(c2ccccc2)CC1 [Compound 1-4, 2-(4-Phenylpiperazine-1-carbonyl)pyrrolo[1,2-a]quinazolin-5(4H)-one]	99%
O=C(c1cc2[nH]c(=O)c3ccccc3n2c1)N1CCC(c2ccccc2)CC1 [Compound 1-5, 2-(4-Phenylpiperidine-1-carbonyl)pyrrolo[1,2-a]quinazolin-5(4H)-one]	71%
O=C(c1cc2[nH]c(=O)c3ccccc3n2c1)N1CC=C(c2ccccc2)CC1 [Compound 1-6, 2-(4-Phenyl-1,2,3,6-tetrahydropyridine-1-carbonyl)pyrrolo[1,2-a]quinazolin-5(4H)-one]	23%
O=C(c1cc2[nH]c(=O)c3ccccc3n2c1)N1CC=C(c2ccc(Cl)cc2)CC1 [Compound 1-7, 2-[4-(4-Chlorophenyl)-1,2,3,6-tetrahydropyridine-1-carbonyl]pyrrolo[1,2-a]quinazolin-5(4H)-one]	44%
O=C(c1cc2[nH]c(=O)c3ccccc3n2c1)N1CC=C(c2ccc(F)cc2)CC1 [Compound 1-8, 2-[4-(4-Fluorophenyl)-1,2,3,6-tetrahydropyridine-1-carbonyl]pyrrolo[1,2-a]quinazolin-5(4H)-one]	51%
CN1CCN(C(=O)c2cc3[nH]c(=O)c4ccccc4n3c2)CC1 [Compound 1-10, 2-(4-Methylpiperazine-1-carbonyl)pyrrolo[1,2-a]quinazolin-5(4H)-one]	68%
O=C(c1cc2[nH]c(=O)c3ccccc3n2c1)N1CCN(Cc2ccccc2)CC1 [Compound 1-11, 2-(4-Benzylpiperazine-1-carbonyl)pyrrolo[1,2-a]quinazolin-5(4H)-one]	86%
CC(C)(C)OC(=O)N1CCCN(C(=O)c2cc3[nH]c(=O)c4ccccc4n3c2)CC1 [Compound 1-47, 2-[4-(tert-Butoxycarbonyl)homopiperazine-1-carbonyl]pyrrolo[1,2-a]quinazolin-5(4H)-one]	93%

Continued, values first:

inhibition at 10 µM	Compound
64%	O=C(c1cc2[nH]c(=O)c3ccccc3n2c1)N1CCN(c2ccc(Cl)cc2)CC1 [Compound 1-12, 2-[4-(4-Chlorophenyl)piperazine-1-carbonyl]pyrrolo[1,2-a]quinazolin-5(4H)-one]
67%	O=C(c1cc2[nH]c(=O)c3ccccc3n2c1)N1CCN(Cc2ccc(F)cc2)CC1 [Compound 1-13, 2-[4-(4-Fluorobenzyl)piperazine-1-carbonyl]pyrrolo[1,2-a]quinazolin-5(4H)-one]
44%	O=C(c1cc2[nH]c(=O)c3ccccc3n2c1)N1CCC(c2ccc(F)cc2)CC1 [Compound 1-14, 2-[4-(4-Fluorophenyl)piperidine-1-carbonyl]pyrrolo[1,2-a]quinazolin-5(4H)-one]
74%	O=C(c1cc2[nH]c(=O)c3ccccc3n2c1)N1CCN(c2cccc(F)c2)CC1 [Compound 1-15, 2-[4-(3-Fluorophenyl)piperazine-1-carbonyl]pyrrolo[1,2-a]quinazolin-5(4H)-one]
84%	O=C(c1cc2[nH]c(=O)c3ccccc3n2c1)N1CCc2ccccc2C1 [Compound 1-21, 2-(3,4-Dihydroisoquinoline-2(1H)-carbonyl)pyrrolo[1,2-a]quinazolin-5(4H)-one]
